Reference: patent US5922554A, “Inhibition of cellular uptake of cholesterol” (The Regents of the University of California, priority 1996, dated 1999)

Experiments:
fibroblast monolayers = assay: Influx/uptake of ^3 H-FC (free cholesterol) from labeled LDL (or plasma, HDL) into normal fibroblast monolayers; type: cell-based, human
[1] = tested on: human hepatoblastoma (HepG2) cells; settings: Lange 1994; cited from earlier work
fibroblast ACAT = settings: 30 μM; Goldstein et al. 1978; cited from earlier work
hepatocytes = settings: 30 μM; Lange 1994; cited from earlier work

## CC(=O)[C@H]1CC[C@H]2[C@@H]3CCC4=CC(=O)CC[C@]4(C)[C@H]3CC[C@]12C [Progesterone]
Fibroblast monolayers
  LDL-FC influx (discussion, words): without effect
  inhibition of LDL-FC pathway (summary, words): not inhibited
Fibroblast monolayers; LDL-FC 60.2 μg ml^-1, 60 min, 37° C., 30 min preequilibration with inhibitor at: Na-azide 1 mM, NH4-vanadate 1 mM, NEM 2 mM, KNO3 50 mM, progesterone 30 μM, forskolin 30 μM, IBMX 100 μM, chloroquine 20 μM
  FC Influx: 1.28 ± 0.06 µg
Fibroblast monolayers; Table 3 conditions
  effect on LDL FC uptake: no effect
Fibroblast monolayers; same concentrations and conditions as Table 3 FC influx, 60 min
  FC Influx, % (PBS only = 100.0): 97.3%
[1]
  transfer of FC from plasma membrane to cell interior: promoted the transfer of FC
Fibroblast ACAT
  inhibition of fibroblast ACAT activity: maximally inhibit
hepatocytes
  inhibition of cholesterol transport in hepatocytes: inhibit
